In article PMC9863297, “Intermolecular Interactions of Edaravone in Aqueous Solutions of Ethaline and Glyceline Inferred from Experiments and Quantum Chemistry Computations” (Molecules, 2023):
Where two headings read alike, the source gives them in different places.

Test: Edaravone solubility, slurry/shake-flask method with spectrophotometric determination at 243 nm
Type: physicochemical
Conditions: thermodynamic from solid, read-out: cE solubility concentration
Description: The first step in obtaining a calibration curve was the preparation of a stock solution of edaravone with a concentration of 2.3 mg/mL. This initial solution was successfully diluted in 10 mL volumetric flasks with methanol and the obtained solutions with decreasing concentrations were measured spectrophotometrically. […] Three separate curves were obtained, and the final curve resulted from averaging. […] The limits of detection (LOD) and quantification (LOQ) were calculated as 5.899∙10^−4 mg/mL and 1.770∙10^−3 mg/mL, respectively.
All of the studied deep eutectic solvents included choline chloride, while the second constituent was either glycerol or ethylene glycol. In order to prepare a DES formulation, choline chloride was mixed with the second compound in different molar ratios in sealed test tubes and placed in a water bath at 363.15 K until the formation of a uniform solution. The obtained DES were either used in their neat form or water was added to them in different proportions in order to form binary systems.
During the next stage, edaravone was added in excess amounts to the test tubes containing both neat DES and binary mixtures, which enabled us to obtain its saturated solutions. Samples prepared in such a manner were placed in an Orbital Shaker Incubator ES-20/60 from Biosan (Riga, Latvia) and incubated for 24 h at different temperatures, namely 298.15 K, 303.15 K, 308.15 K and 313.15 K. The temperature adjustment accuracy was 0.1 K and its variability in a 24 h cycle was ±0.5 K. Apart from heating, all of the samples were mixed at 60 rev/min. The increased viscosity and density of DES systems required the samples to be centrifuged at 1000 rev/min for 5 min with the use of EBA 20 centrifuge from Hettich (Tuttlingen, Germany) enabling the undissolved precipitate to remain on the bottom of the test tubes. Next, the samples were filtered using a syringe equipped with a PTFE syringe filer with 0.22 µm pore size. In order to avoid precipitation, the test tubes, syringes and filters were initially heated at a temperature equal to the one of the handled samples. Finally, small amounts of the obtained filtrate were transferred to test tubes filled with methanol and the diluted samples were measured spectrophotometrically. Additionally, for the determination of the mole fractions of edaravone, the density of the samples was measured by weighing a fixed volume of the solution in 10 mL volumetric flasks.
For determining the solubility of edaravone in the studied systems, the samples prepared, as described above, were measured spectrophotometrically using an A360 spectrophotometer from AOE Instruments (Shanghai, China). The spectra were recorded in the 190 nm to 500 nm wavelength range and 1 nm resolution. Methanol was used for the initial calibration of the spectrophotometer and for the dilution of the measured samples, which was conducted in order for the absorbance values to remain below 2.5. The absorbance values at 243 nm were taken into account and based on the calibration curve prepared earlier, the concentration of edaravone in the samples was determined, followed by its mole fractions. The values were averaged from three separate measurements.

Compound `CC1=NN(c2ccccc2)C(=O)C1` [edaravone, 5-methyl-2-phenyl-4H-pyrazol-3-one] has a solubility at 24 h (25 °C, aqueous with cosolvent or surfactant or cyclodextrin, water + ETA (ChCl:EG 1:2), x*ETA = 0.2, 298.15 K) of 221 mg/mL, a solubility at 24 h (25 °C, aqueous with cosolvent or surfactant or cyclodextrin, water + ETA (ChCl:EG 1:2), x*ETA = 0.4, 298.15 K) of 407 mg/mL and a solubility at 24 h (25 °C, aqueous with cosolvent or surfactant or cyclodextrin, water + ETA (ChCl:EG 1:2), x*ETA = 0.5, 298.15 K) of 457 mg/mL. The solubility at 24 h (25 °C, aqueous with cosolvent or surfactant or cyclodextrin, water + GLE (ChCl:GL 1:2), x*GLE = 0.2, 298.15 K) was 115 mg/mL, the solubility at 24 h (25 °C, aqueous with cosolvent or surfactant or cyclodextrin, water + GLE (ChCl:GL 1:2), x*GLE = 0.4, 298.15 K) was 233 mg/mL and the solubility at 24 h (25 °C, aqueous with cosolvent or surfactant or cyclodextrin, water + GLE (ChCl:GL 1:2), x*GLE = 0.5, 298.15 K) was 299 mg/mL. The solubility at 24 h (25 °C, aqueous with cosolvent or surfactant or cyclodextrin, water + GLE (ChCl:GL 1:2), x*GLE = 0.8, 298.15 K) was 266 mg/mL, the solubility at 24 h (25 °C, organic solvent or mixture, neat DES choline chloride + glycerol (GLE) 1:2 molar ratio (x*GLE = 1.0), 298.15 K) was 191 mg/mL and the solubility at 24 h (25 °C, organic solvent or mixture, neat DES choline chloride + glycerol (GLE) 1:4 molar ratio, 298.15 K) was 177 mg/mL. The solubility at 24 h (30 °C, aqueous with cosolvent or surfactant or cyclodextrin, water + ETA (ChCl:EG 1:2), x*ETA = 0.2, 303.15 K) was 270 mg/mL, the solubility at 24 h (30 °C, aqueous with cosolvent or surfactant or cyclodextrin, water + ETA (ChCl:EG 1:2), x*ETA = 0.4, 303.15 K) was 505 mg/mL and the solubility at 24 h (30 °C, aqueous with cosolvent or surfactant or cyclodextrin, water + ETA (ChCl:EG 1:2), x*ETA = 0.5, 303.15 K) was 554 mg/mL. For the same compound, the solubility at 24 h (30 °C, aqueous with cosolvent or surfactant or cyclodextrin, water + GLE (ChCl:GL 1:2), x*GLE = 0.2, 303.15 K) was 148 mg/mL, the solubility at 24 h (30 °C, aqueous with cosolvent or surfactant or cyclodextrin, water + GLE (ChCl:GL 1:2), x*GLE = 0.4, 303.15 K) was 328 mg/mL and the solubility at 24 h (30 °C, aqueous with cosolvent or surfactant or cyclodextrin, water + GLE (ChCl:GL 1:2), x*GLE = 0.5, 303.15 K) was 415 mg/mL. It also gave a solubility at 24 h (30 °C, aqueous with cosolvent or surfactant or cyclodextrin, water + GLE (ChCl:GL 1:2), x*GLE = 0.6, 303.15 K) of 464 mg/mL, a solubility at 24 h (30 °C, aqueous with cosolvent or surfactant or cyclodextrin, water + GLE (ChCl:GL 1:2), x*GLE = 0.8, 303.15 K) of 364 mg/mL and a solubility at 24 h (30 °C, organic solvent or mixture, neat DES choline chloride + glycerol (GLE) 1:1 molar ratio, 303.15 K) of 203 mg/mL. The solubility at 24 h (30 °C, organic solvent or mixture, neat DES choline chloride + glycerol (GLE) 1:2 molar ratio (x*GLE = 1.0), 303.15 K) was 282 mg/mL, the solubility at 24 h (30 °C, organic solvent or mixture, neat DES choline chloride + glycerol (GLE) 1:4 molar ratio, 303.15 K) was 246 mg/mL and the solubility at 24 h (35 °C, aqueous with cosolvent or surfactant or cyclodextrin, water + ETA (ChCl:EG 1:2), x*ETA = 0.2, 308.15 K) was 331 mg/mL. For the same compound, the solubility at 24 h (35 °C, aqueous with cosolvent or surfactant or cyclodextrin, water + ETA (ChCl:EG 1:2), x*ETA = 0.4, 308.15 K) was 603 mg/mL, the solubility at 24 h (35 °C, aqueous with cosolvent or surfactant or cyclodextrin, water + GLE (ChCl:GL 1:2), x*GLE = 0.2, 308.15 K) was 201 mg/mL and the solubility at 24 h (35 °C, aqueous with cosolvent or surfactant or cyclodextrin, water + GLE (ChCl:GL 1:2), x*GLE = 0.4, 308.15 K) was 402 mg/mL. The solubility at 24 h (35 °C, aqueous with cosolvent or surfactant or cyclodextrin, water + GLE (ChCl:GL 1:2), x*GLE = 0.5, 308.15 K) was 518 mg/mL, the solubility at 24 h (35 °C, aqueous with cosolvent or surfactant or cyclodextrin, water + GLE (ChCl:GL 1:2), x*GLE = 0.6, 308.15 K) was 567 mg/mL and the solubility at 24 h (35 °C, aqueous with cosolvent or surfactant or cyclodextrin, water + GLE (ChCl:GL 1:2), x*GLE = 0.8, 308.15 K) was 472 mg/mL. It also gave a solubility at 24 h (35 °C, organic solvent or mixture, neat DES choline chloride + glycerol (GLE) 1:1 molar ratio, 308.15 K) of 274 mg/mL, a solubility at 24 h (35 °C, organic solvent or mixture, neat DES choline chloride + glycerol (GLE) 1:2 molar ratio (x*GLE = 1.0), 308.15 K) of 369 mg/mL and a solubility at 24 h (35 °C, organic solvent or mixture, neat DES choline chloride + glycerol (GLE) 1:4 molar ratio, 308.15 K) of 336 mg/mL. For the same compound, the solubility at 24 h (40 °C, aqueous with cosolvent or surfactant or cyclodextrin, water + ETA (ChCl:EG 1:2), x*ETA = 0.2, 313.15 K) was 382 mg/mL, the solubility at 24 h (40 °C, aqueous with cosolvent or surfactant or cyclodextrin, water + ETA (ChCl:EG 1:2), x*ETA = 0.4, 313.15 K) was 684 mg/mL and the solubility at 24 h (40 °C, aqueous with cosolvent or surfactant or cyclodextrin, water + GLE (ChCl:GL 1:2), x*GLE = 0.2, 313.15 K) was 252 mg/mL. The solubility at 24 h (40 °C, aqueous with cosolvent or surfactant or cyclodextrin, water + GLE (ChCl:GL 1:2), x*GLE = 0.4, 313.15 K) was 514 mg/mL and the solubility at 24 h (40 °C, aqueous with cosolvent or surfactant or cyclodextrin, water + GLE (ChCl:GL 1:2), x*GLE = 0.5, 313.15 K) was 647 mg/mL.
